Data published in patent US12522601B2, “1,3,4-oxadiazole derivative compounds as histone deacetylase 6 inhibitor, and the pharmaceutical composition comprising the same” (CHONG KUN DANG PHARMACEUTICAL CORP., priority 2020, dated 2026).

Experiments:
[1] = molecular target: T1, human recombinant HDAC1 (Homo sapiens, UniProt Q13547); assay: In vitro HDAC enzyme activity inhibition assay, HDAC1 (HDAC Fluorimetric Drug Discovery Kit); type: biochemical; conditions: human recombinant HDAC1, Fluor de Lys-SIRT1 substrate 10 μM, 30° C. for 60 minutes
T1 construct: purchased Enzo Life Sciences, Inc. BML-SE456
How it was run: (§1)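 Both HDAC1 and HDAC6 (human recombinant, 0.3 μg) tested identically: 10 μM fluorogenic Fluor de Lys-SIRT1 substrate, reaction 60 min at 30° C, developer added for 30 min. IC50 calculated from Ex 360/Em 460 signal over 5-fold serial dilutions.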

[2] = molecular target: T2, human recombinant HDAC6 (Homo sapiens, UniProt Q9UBN7); assay: In vitro HDAC enzyme activity inhibition assay, HDAC6 (HDAC Fluorimetric Drug Discovery Kit); type: biochemical; conditions: for HDAC6 Selectivity (fold): HDAC6 versus HDAC1; for IC50: human recombinant HDAC6, same protocol as the HDAC1 test
T2 construct: purchased Calbiochem Inc. 382180
T2 sequence (Q9UBN7 1-1215): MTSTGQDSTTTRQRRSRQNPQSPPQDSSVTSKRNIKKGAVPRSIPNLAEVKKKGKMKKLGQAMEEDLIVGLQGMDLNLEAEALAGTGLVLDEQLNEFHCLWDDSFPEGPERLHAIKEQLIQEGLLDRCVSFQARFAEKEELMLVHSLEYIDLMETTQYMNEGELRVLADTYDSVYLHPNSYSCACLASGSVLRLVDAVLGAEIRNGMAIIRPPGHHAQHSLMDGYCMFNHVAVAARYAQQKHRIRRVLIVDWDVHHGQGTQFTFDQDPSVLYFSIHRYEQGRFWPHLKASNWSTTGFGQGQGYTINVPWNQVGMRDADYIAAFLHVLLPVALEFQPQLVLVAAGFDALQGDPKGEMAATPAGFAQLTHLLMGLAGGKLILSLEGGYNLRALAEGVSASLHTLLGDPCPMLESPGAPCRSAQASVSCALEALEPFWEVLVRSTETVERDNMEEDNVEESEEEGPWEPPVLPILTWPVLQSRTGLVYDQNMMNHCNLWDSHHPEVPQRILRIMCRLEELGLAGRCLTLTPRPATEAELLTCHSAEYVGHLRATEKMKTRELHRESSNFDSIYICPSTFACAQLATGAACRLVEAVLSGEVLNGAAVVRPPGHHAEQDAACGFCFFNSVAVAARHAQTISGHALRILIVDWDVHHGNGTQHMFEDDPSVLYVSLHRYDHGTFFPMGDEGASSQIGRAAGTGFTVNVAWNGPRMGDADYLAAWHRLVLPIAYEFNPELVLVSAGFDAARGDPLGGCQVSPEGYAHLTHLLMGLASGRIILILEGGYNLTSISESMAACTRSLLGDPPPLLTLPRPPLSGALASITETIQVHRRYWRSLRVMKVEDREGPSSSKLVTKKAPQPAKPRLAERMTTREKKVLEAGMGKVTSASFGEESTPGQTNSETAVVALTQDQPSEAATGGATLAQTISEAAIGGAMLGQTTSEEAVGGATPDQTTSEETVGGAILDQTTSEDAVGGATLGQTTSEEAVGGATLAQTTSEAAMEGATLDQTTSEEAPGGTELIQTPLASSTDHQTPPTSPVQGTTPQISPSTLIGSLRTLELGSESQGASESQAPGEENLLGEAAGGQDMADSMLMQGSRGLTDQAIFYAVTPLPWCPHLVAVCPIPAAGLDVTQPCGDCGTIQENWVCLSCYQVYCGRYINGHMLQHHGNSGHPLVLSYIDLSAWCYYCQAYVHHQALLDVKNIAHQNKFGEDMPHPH
How it was run: as §1

T1 sequence (Q13547 whole entry): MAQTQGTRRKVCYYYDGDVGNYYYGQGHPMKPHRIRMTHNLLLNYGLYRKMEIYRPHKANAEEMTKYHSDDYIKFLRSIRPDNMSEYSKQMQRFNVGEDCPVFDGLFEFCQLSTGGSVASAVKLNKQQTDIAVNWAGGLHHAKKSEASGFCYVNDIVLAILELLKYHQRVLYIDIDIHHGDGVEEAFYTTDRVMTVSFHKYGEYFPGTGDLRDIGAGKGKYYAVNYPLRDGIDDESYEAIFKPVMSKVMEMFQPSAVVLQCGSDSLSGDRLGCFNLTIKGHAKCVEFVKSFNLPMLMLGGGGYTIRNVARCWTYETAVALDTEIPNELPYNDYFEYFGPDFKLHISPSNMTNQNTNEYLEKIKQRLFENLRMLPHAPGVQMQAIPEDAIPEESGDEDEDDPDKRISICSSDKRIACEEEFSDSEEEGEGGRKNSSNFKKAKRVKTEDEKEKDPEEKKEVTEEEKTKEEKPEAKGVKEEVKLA

Row | IC50 [1] | HDAC6 Selectivity (fold) [2] | IC50 [2] | SMILES
1 | > 50 µM | 187 fold | 0.267 µM | CC(=O)N1CCN(C(=O)N(Cc2cn3ccc(-c4nnc(C(F)F)o4)cc3n2)c2cccc(F)c2)CC1 [Compound 4092, 4-acetyl-N-((7-(5-(difluoromethyl)-1,3,4-oxadiazol-2-yl)imidazo[1,2-a]pyridin-2-yl)methyl)-N-(3-fluorophenyl)piperazine-1-carboxamide]
2 | > 50 µM | 256 fold | 0.195 µM | CCC(=O)N1CCN(C(=O)N(Cc2cn3ccc(-c4nnc(C(F)F)o4)cc3n2)c2cccc(F)c2)CC1 [Compound 4093, N-((7-(5-(difluoromethyl)-1,3,4-oxadiazol-2-yl)imidazo[1,2-a]pyridin-2-yl)methyl)-N-(3-fluorophenyl)-4-propionylpiperazine-1-carboxamide]
3 | > 50 µM | 215 fold | 0.232 µM | O=C(CO)N1CCN(C(=O)N(Cc2cn3ccc(-c4nnc(C(F)F)o4)cc3n2)c2cccc(F)c2)CC1 [Compound 4094, N-((7-(5-(difluoromethyl)-1,3,4-oxadiazol-2-yl)imidazo[1,2-a]pyridin-2-yl)methyl)-N-(3-fluorophenyl)-4-(2-hydroxyacetyl)piperazine-1-carboxamide]
4 | > 50 µM | 185 fold | 0.27 µM | O=C(C1CCC1)N1CCN(C(=O)N(Cc2cn3ccc(-c4nnc(C(F)F)o4)cc3n2)c2cccc(F)c2)CC1 [Compound 4095, 4-(cyclobutanecarbonyl)-N-((7-(5-(difluoromethyl)-1,3,4-oxadiazol-2-yl)imidazo[1,2-a]pyridine-2-yl)methyl)-N-(3-fluorophenyl)piperazine-1-carboxamide]
5 | > 50 µM | 121 fold | 0.413 µM | O=C(N1CCN(C(=O)C(F)(F)F)CC1)N(Cc1cn2ccc(-c3nnc(C(F)F)o3)cc2n1)c1cccc(F)c1 [Compound 4096, N-((7-(5-(difluoromethyl)-1,3,4-oxadiazol-2-yl)imidazo[1,2-a]pyridin-2-yl)methyl)-N-(3-fluorophenyl)-4-(2,2,2-trifluoroacetyl)piperazine-1-carboxamide]
6 | > 50 µM | 335 fold | 0.149 µM | CS(=O)(=O)N1CCN(C(=O)N(Cc2cn3ccc(-c4nnc(C(F)F)o4)cc3n2)c2cccc(F)c2)CC1 [Compound 4097, N-((7-(5-(difluoromethyl)-1,3,4-oxadiazol-2-yl)imidazo[1,2-a]pyridin-2-yl)methyl)-N-(3-fluorophenyl)-4-(methylsulfonyl)piperazine-1-carboxamide]
7 | > 50 µM | 325 fold | 0.154 µM | COC(=O)N1CCN(C(=O)N(Cc2cn3ccc(-c4nnc(C(F)F)o4)cc3n2)c2cccc(F)c2)CC1 [Compound 4098, methyl 4-(((7-(5-(difluoromethyl)-1,3,4-oxadiazol-2-yl)imidazo[1,2-a]pyridin-2-yl)methyl)(3-fluorophenyl)carbamoyl)piperazine-1-carboxylate]
8 | > 50 µM | 360 fold | 0.139 µM | CN(C)C(=O)N1CCN(C(=O)N(Cc2cn3ccc(-c4nnc(C(F)F)o4)cc3n2)c2cccc(F)c2)CC1 [Compound 4099, N1-((7-(5-(difluoromethyl)-1,3,4-oxadiazol-2-yl)imidazo[1,2-a]pyridin-2-yl)methyl)-N1-(3-fluorophenyl)-N4,N4-dimethylpiperazine-1,4-dicarboxamide]
9 | > 50 µM | 107 fold | 0.468 µM | O=C(N1CCN(c2ccccn2)CC1)N(Cc1cn2ccc(-c3nnc(C(F)F)o3)cc2n1)c1cccc(F)c1 [Compound 4100, N-((7-(5-(difluoromethyl)-1,3,4-oxadiazol-2-yl)imidazo[1,2-a]pyridin-2-yl)methyl)-N-(3-fluorophenyl)-4-(pyridin-2-yl)piperazine-1-carboxamide]
